This passage reports EC50 and IC50 results from patent publication US9120805B2, “Substituted pyrrolo[1,2-A]pyrazin-1-ones and pyrazolo[1,5-A]pyrazin-4-ones as inhibitors of tankyrase and poly(ADP-ribose)polymerase activity” (Merck Patent GmbH, priority 2012, dated 2015).

One assay has as its system tankyrase 1/2. Nature of the assay: Cellular inhibition of Tankyrase: increase of Axin2 level in DLD1 cells (Luminex). The class given is cell-based. The settings on record: 24 hours, read-out: EC50 tankyrase 1/2 (cell assay). On the procedure:
Measurement of Cellular Inhibition of Tankyrase
Since Tankyrases have been described to modulate cellular level of Axin2 (Huang et al., 2009; Nature) the increase of Axin2 level is used as read-out for determination of cellular inhibition of Tankyrases in a Luminex based assay.
Cells of the colon carcinoma cell line DLD1 are plated in 96 well plates with 1.5×10^4 cells per well. Next day, cells are treated with a serial dilution of test compound in seven steps as triplicates with a final DMSO concentration of 0.3%. After 24 hours, cells are lysed in lysis buffer (20 mM Tris/HCl pH 8.0, 150 mM NaCl, 1% NP40, 10% Glycerol) and lysates are cleared by centrifugation through a 96 well filter plate (0.65 μm). Axin2 protein is isolated from cell lysates by incubation with a monoclonal anti-Axin2 antibody (R&D Systems #MAB6078) that is bound to fluorescent carboxybeads. Then, bound Axin2 is specifically detected with a polyclonal anti-Axin2 antibody (Cell Signaling #2151) and an appropriate PE-fluorescent secondary antibody. The amount of isolated Axin2 protein is determined in a Luminex^200 machine (Luminex Corporation) according to the manufacturer's instruction by counting 100 events per well. Inhibition of Tankyrase by test compounds results in higher levels of Axin2 which directly correlates with an increase of detectable fluorescence. As controls cells are treated with solvent alone (neutral control) and with a Tankyrase reference inhibitor IWR-2 (3E-06 M) which refers as control for maximum increase of Axin2. For analysis, the obtained data are normalized against the untreated solvent control and fitted for determination of the EC50 values using the Assay Explorer software (Accelrys).

The target of assay [1] is T1, GST-tagged Tankyrase-1 (1023-1327 aa) (Homo sapiens, UniProt O95271).
T1 construct: GST-tagged Tankyrase-1 (1023-1327 aa)
Nature of the assay: Tankyrase 1 autoparsylation assay (HTRF enzyme assay). The class given is biochemical. On the procedure:
(§1) Biochemical Activity Testing of Tankyrase 1 and 2: Autoparsylation Assay
(§2) The autoparsylation assay is run in two steps: the enzymatic reaction in which GST-tagged Tankyrase-1, resp Tankyrase-2 transferred biotinylated ADP-ribose to itself from biotinylated NAD as co-substrate and the detection reaction where a time resolved FRET between cryptate labelled anti-GST bound to the GST tag of the enzyme and Xlent® labelled-streptavidin bound the biotin-parsylation residue is analysed. The autoparsylation activity was detectable directly via the increase in HTRF signal.
(§3) The autoparsylation assay is performed as 384-well HTRF® (Cisbio, Codolet, France) assay format in Greiner low volume nb 384-well microtiter plates and is used for high throughput screen. 250 nM GST-tagged Tankyrase-1 (1023-1327 aa), respectively about 250 nM GST-tagged Tankyrase-2 (873-1166 aa) and 5 μM bio-NAD (Biolog, Life science Inst., Bremen, Germany) as co-substrate are incubated in a total volume of 5 μl (50 mM HEPES, 4 mM Mg-chloride, 0.05% Pluronic F-68, 1.4 mM DTT, 0.5% DMSO, pH 7.7) in the absence or presence of the test compound (10 dilution concentrations) for 90 min at 30° C. The reaction is stopped by the addition of 1 μl 50 mM EDTA solution. 2 μl of the detection solution (1.6 μM SA-Xlent® (Cisbio, Codolet, France), 7.4 nM Anti-GST-K® (Eu-labelled anti-GST, Cisbio, Codolet, France) in 50 mM HEPES, 800 mM KF, 0.1% BSA, 20 mM EDTA, 0.1% CHAPS, pH 7.0) are added. After 1 h incubation at room temperature the HTRF is measured with an Envision multimode reader (Perkin Elmer LAS Germany GmbH) at excitation wavelength 340 nm (laser mode) and emission wavelengths 615 nm and 665 nm. The ratio of the emission signals is determined. The full value used is the inhibitor-free reaction. The pharmacological zero value used is XAV-939 (Tocris) in a final concentration of 5 μM. The inhibitory values (IC50) are determined using either the program Symyx Assay Explorer® or Condosseo® from GeneData.
In general terms: Time-resolved FRET reads energy transfer from a long-lived donor to a nearby acceptor.

Assay [2] addresses T2, GST-tagged Tankyrase-2 (873-1166 aa) (Homo sapiens, UniProt Q9H2K2).
T2 construct: GST-tagged Tankyrase-2 (873-1166 aa)
Nature of the assay: Tankyrase 2 autoparsylation assay (HTRF enzyme assay). In kind it is biochemical. On the procedure:
as §1, §2, §3

For orientation: IC50 means the concentration needed to halve the response being measured. Low values mean inhibition by little substance, high ones a need for much substance.

Bounds are passed on as bounds.

T2 sequence (Q9H2K2 873-1166): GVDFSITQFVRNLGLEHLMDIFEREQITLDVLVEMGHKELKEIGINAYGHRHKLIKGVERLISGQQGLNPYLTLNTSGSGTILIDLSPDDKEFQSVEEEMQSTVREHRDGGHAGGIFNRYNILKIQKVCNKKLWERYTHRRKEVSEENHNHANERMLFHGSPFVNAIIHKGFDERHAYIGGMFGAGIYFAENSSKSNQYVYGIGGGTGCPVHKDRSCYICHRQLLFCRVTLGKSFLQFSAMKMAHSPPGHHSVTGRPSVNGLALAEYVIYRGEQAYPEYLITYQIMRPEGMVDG
T1 sequence (O95271 1023-1327): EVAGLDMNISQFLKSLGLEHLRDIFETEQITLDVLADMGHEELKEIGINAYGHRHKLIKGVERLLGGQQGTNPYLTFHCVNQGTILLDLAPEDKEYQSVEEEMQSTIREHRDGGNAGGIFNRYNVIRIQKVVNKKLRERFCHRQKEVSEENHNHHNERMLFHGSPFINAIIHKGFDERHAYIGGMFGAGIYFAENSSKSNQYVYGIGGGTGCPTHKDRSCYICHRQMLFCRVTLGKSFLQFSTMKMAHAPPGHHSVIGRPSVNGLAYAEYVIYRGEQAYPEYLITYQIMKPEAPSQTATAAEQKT

As for `C=C(CCCO)c1ccc(-c2cn3cc(F)cc3c(=O)[nH]2)cc1` (single isomer, unassigned) [Compound A74, 7-fluoro-3-[4-(4-hydroxy-1-methylene-butyl)-phenyl]-2H-pyrrolo[1,2-a]pyrazin-1-one], in the assay with tankyrase 1/2, the EC50 lay within 300 to 3000 nM. For the same compound, the 50% inhibitory concentration (IC50) is below 300 nM in assay [1] and 300 to 3000 nM in assay [2].
For the compound `O=c1[nH]c(-c2ccccc2)cn2cccc12` [Compound A2, 3-phenyl-2H-pyrrolo[1,2-a]pyrazin-1-one], the IC50 in assay [1] and in assay [2] was 300 to 3000 nM each time.
Compound `CC1(C)CCC(C)(C)c2cc(-c3cn4cccc4c(=O)[nH]3)ccc21` [Compound A5, 3-(5,5,8,8-tetramethyl-5,6,7,8-tetrahydro-naphthalen-2-yl)-2H-pyrrolo[1,2-a]pyrazin-1-one] yielded an IC50 in assay [1] of 3000 to 50000 nM.
On to `Cn1cc(-c2cn3cccc3c(=O)[nH]2)cn1` [Compound A14, 3-(1-methyl-1H-pyrazol-4-yl)-2H-pyrrolo[1,2-a]pyrazin-1-one], for which the IC50 in assay [1] and in assay [2] was 300 to 3000 nM throughout.
As to `O=c1[nH]c(-c2ccc(OC(F)(F)F)cc2)cn2nccc12` [Compound A16, 6-(4-trifluoromethoxy-phenyl)-5H-pyrazolo[1,5-a]pyrazin-4-one], the IC50 in assay [1] was 300 to 3000 nM; in assay [2], 3000 to 50000 nM.
As to `O=c1[nH]c(-c2ccc(N3CCCC3)cc2)cn2nccc12` [Compound A17, 6-(4-pyrrolidin-1-yl-phenyl)-5H-pyrazolo[1,5-a]pyrazin-4-one], in the assay with tankyrase 1/2, the EC50 fell in the range of 300 to 3000 nM. The IC50 in assay [1] and in assay [2] was below 300 nM in each case.
For `O=c1[nH]c(-c2ccc(N3CCCC3)cc2)cn2nc(CO)cc12` [Compound A19, 2-hydroxymethyl-6-(4-pyrrolidin-1-yl-phenyl)-5H-pyrazolo[1,5-a]pyrazin-4-one], the EC50 with tankyrase 1/2 was 300 to 3000 nM. The half-inhibitory concentration (IC50) in assay [1] was below 300 nM; in assay [2], 300 to 3000 nM.
On to `CC(C)Oc1ccc(-c2cn3nc(CO)cc3c(=O)[nH]2)cc1` [Compound A20, 2-hydroxymethyl-6-(4-isopropoxy-phenyl)-5H-pyrazolo[1,5-a]pyrazin-4-one], for which the results for the IC50 in assay [1] and in assay [2] were 300 to 3000 nM and 3000 to 50000 nM, respectively.
The corresponding values for `Cc1nc(-c2ccc(-c3cn4nc(CO)cc4c(=O)[nH]3)cc2)no1` [Compound A21, 2-hydroxymethyl-6-[4-(5-methyl-[1,2,4]oxadiazol-3-yl)-phenyl]-5H-pyrazolo[1,5-a]pyrazin-4-one] are 300 to 3000 nM and 3000 to 50000 nM.
Turning to `CC(C)n1cc(-c2cn3nc(CO)cc3c(=O)[nH]2)cn1` [Compound A22, 2-hydroxymethyl-6-(1-isopropyl-1H-pyrazol-4-yl)-5H-pyrazolo[1,5-a]pyrazin-4-one], the IC50 in assay [1] lay in the range of 3000 to 50000 nM.
As to `O=c1[nH]c(-c2ccc(Br)cc2)cn2cccc12` [Compound A24, 3-(4-bromo-phenyl)-2H-pyrrolo[1,2-a]pyrazin-1-one], the IC50 in assay [1] and in assay [2] was below 300 nM throughout.
In the case of `COCCn1cc(-c2ccc(-c3cn4cccc4c(=O)[nH]3)cc2)cn1` [Compound A26, 3-{4-[1-(2-methoxy-ethyl)-1H-pyrazol-4-yl]-phenyl}-2H-pyrrolo[1,2-a]pyrazin-1-one], in the assay with tankyrase 1/2, the EC50 is 300 to 3000 nM. In addition, the IC50 in assay [1] and in assay [2] was below 300 nM throughout.
For `O=c1[nH]c(-c2ccc(-c3cnn(CCN4CCCC4)c3)cc2)cn2cccc12` [Compound A27, 3-{4-[1-(2-pyrrolidin-1-yl-ethyl)-1H-pyrazol-4-yl]-phenyl}-2H-pyrrolo[1,2-a]pyrazin-1-one], the EC50 in the assay on tankyrase 1/2 was 300 to 3000 nM. The IC50 in assay [1] and in assay [2] was below 300 nM throughout.
Turning to `COC(=O)c1ccc(-c2cn3cccc3c(=O)[nH]2)cc1` [Compound A28, 4-(1-oxo-1,2-dihydro-pyrrolo[1,2-a]pyrazin-3-yl)-benzoic acid methyl ester], the EC50 in the assay on tankyrase 1/2 was 300 to 3000 nM. Moreover, the IC50 in assay [1] was below 300 nM; in assay [2], 300 to 3000 nM.
In the case of `Cc1cc2c(=O)[nH]c(-c3ccc(C(C)(C)C)cc3)cn2n1` [Compound A30, 6-(4-tert-butyl-phenyl)-2-methyl-5H-pyrazolo[1,5-a]pyrazin-4-one], the EC50 in the assay with tankyrase 1/2 is below 300 nM. The figures for the half-maximal inhibitory concentration (IC50) in assay [1] and in assay [2] were below 300 nM and 300 to 3000 nM, respectively.
For the compound `O=c1[nH]c(-c2ccc(-c3cnn(CCOC4CCCCO4)c3)cc2)cn2cccc12` (stereo not drawn) [Compound A31, 3-(4-{1-[2-(tetrahydro-pyran-2-yloxy)-ethyl]-1H-pyrazol-4-yl}-phenyl)-2H-pyrrolo[1,2-a]pyrazin-1-one], the 50% inhibitory concentration (IC50) in assay [1] is below 300 nM; in assay [2] it was 300 to 3000 nM.
As for `O=c1[nH]c(-c2ccc(-c3cnn(CCO)c3)cc2)cn2cccc12` [Compound A32, 3-{4-[1-(2-hydroxy-ethyl)-1H-pyrazol-4-yl]-phenyl}-2H-pyrrolo[1,2-a]pyrazin-1-one], the EC50 in the assay on tankyrase 1/2 is 300 to 3000 nM. The half-inhibitory concentration (IC50) in assay [1] and in assay [2] was below 300 nM in each case.
On to `O=c1[nH]c(-c2ccc(OC(F)(F)F)cc2)cn2nc(CCl)cc12` [Compound A33, 2-chloromethyl-6-(4-trifluoromethoxy-phenyl)-5H-pyrazolo[1,5-a]pyrazin-4-one], for which, in assay [1], the 50% inhibitory concentration (IC50) was 300 to 3000 nM.
As for `Cc1cc2c(=O)[nH]c(-c3ccc(OC(F)(F)F)cc3)cn2n1` [Compound A34, 2-methyl-6-(4-trifluoromethoxy-phenyl)-5H-pyrazolo[1,5-a]pyrazin-4-one], in the assay on tankyrase 1/2, the EC50 is 300 to 3000 nM. Moreover, the results for the half-maximal inhibitory concentration (IC50) in assay [1] and in assay [2] were below 300 nM and 300 to 3000 nM, respectively.
For the compound `O=c1[nH]c(-c2ccc(Br)cc2)cn2nc(CBr)cc12` [Compound A36, 2-bromomethyl-6-(4-bromo-phenyl)-5H-pyrazolo[1,5-a]pyrazin-4-one], the half-maximal inhibitory concentration (IC50) fell in the range of 300 to 3000 nM in assay [1] and 3000 to 50000 nM in assay [2].
Regarding `Cc1cc2c(=O)[nH]c(-c3cnn(C(C)(C)C)c3)cn2n1` [Compound A52, 2-methyl-6-(1-tert-butyl-1H-pyrazol-4-yl)-5H-pyrazolo[1,5-a]pyrazin-4-one], the IC50 in assay [1] lay within 300 to 3000 nM; in assay [2], 3000 to 50000 nM.
Turning to `CC(C)(C)c1ccc(-c2cn3nc(C(F)(F)F)cc3c(=O)[nH]2)cc1` [Compound A55, 6-(4-tert-butyl-phenyl)-2-trifluoromethyl-5H-pyrazolo[1,5-a]pyrazin-4-one], the half-maximal inhibitory concentration (IC50) in assay [1] was below 300 nM.
As to `O=c1[nH]c(-c2ccc(Br)cc2)cn2cc(F)cc12` [Compound A58, 3-(4-bromo-phenyl)-7-fluoro-2H-pyrrolo[1,2-a]pyrazin-1-one], the half-inhibitory concentration (IC50) in assay [1] and in assay [2] was below 300 nM in each case.
Regarding `CC(C)(O)c1ccc(-c2cn3cc(C#N)cc3c(=O)[nH]2)cc1` [Compound A62, 3-[4-(1-hydroxy-1-methyl-ethyl)-phenyl]-1-oxo-1,2-dihydro-pyrrolo[1,2-a]pyrazine-7-carbonitrile], the EC50 with tankyrase 1/2 was 3000 to 50000 nM.
In assay [1], `O=c1[nH]c(-c2ccc(Br)cc2)cn2nc(C(F)(F)F)cc12` [Compound A67, 6-(4-bromo-phenyl)-2-trifluoromethyl-5H-pyrazolo[1,5-a]pyrazin-4-one] showed an IC50 of 300 to 3000 nM.
Turning to `O=c1[nH]c(-c2ccc(C3CCNCC3)cc2)cn2cc(Cl)cc12` [Compound A78, 7-Chloro-3-(4-piperidin-4-yl-phenyl)-2H-pyrrolo[1,2-a]pyrazin-1-one], the EC50 with tankyrase 1/2 was in the range of 300 to 3000 nM.
